{
  "source": "patent US20070128217A1",
  "about": "(priority 2003, published 2007)",
  "key": {"[1]": {"tested_on": "rabbit serum obtained by immunizing a rabbit with the SARS-CoV strain Frankfurt 1", "format": "binding", "design": "Binding of a rabbit serum to linear peptides / Binding of a rabbit serum to looped peptides / Rabbit serum linear peptides / Rabbit serum looped peptides / Binding of a rabbit serum to linear peptides of protein N of SARS-CoV Urbani (Rabbit serum linear peptides) / Binding of a rabbit serum to looped/cyclic peptides of protein N of SARS-CoV Urbani (Rabbit serum looped peptides): unit not given here"}, "[2]": {"tested_on": "antibodies in sera from SARS patients (sera 1a, 1b, 2, 6, 37, 62, London, SARS-yellow, SARS-green)", "format": "binding, human", "design": "Binding of serum 6 to linear peptides of protein X1 of SARS-CoV Urbani / Binding of serum 37 to linear peptides of protein X1 of SARS-CoV Urbani / Binding of serum 6 to looped/cyclic peptide (PEPSCAN-ELISA) / Binding of serum 37 to looped/cyclic peptide (PEPSCAN-ELISA) / Binding of serum 37 to looped/cyclic peptides of protein X1 of SARS-CoV Urbani / Binding of serum 6 to linear peptides of protein X2 / Binding of serum 37 to linear peptides of protein X2 / Binding of serum 37 to looped/cyclic peptides of protein X2 of SARS-CoV Urbani / Binding of serum 6 to linear peptides of protein M of SARS-CoV Urbani / Binding of serum 37 to linear peptides of protein M of SARS-CoV Urbani / Binding of serum 6 to looped/cyclic peptides of protein M of SARS-CoV Urbani / Binding of serum 37 to looped/cyclic peptides of protein M of SARS-CoV Urbani / Binding of serum 6 to linear peptides of protein X3 of SARS-CoV Urbani / Binding of serum 37 to linear peptides of protein X3 of SARS-CoV Urbani / Binding of serum 37 to looped/cyclic peptides of protein X3 of SARS-CoV Urbani / Binding of serum 6 to linear peptides of protein X4 of SARS-CoV Urbani / Binding of serum 37 to linear peptides of protein X4 of SARS-CoV Urbani / Binding of serum 37 to looped/cyclic peptides of protein X4 of SARS-CoV Urbani / Binding of serum 6 to linear peptides of protein X5 of SARS-CoV Urbani / Binding of serum 37 to linear peptides of protein X5 of SARS-CoV Urbani / Binding of serum 37 to looped/cyclic peptides of protein X5 of SARS-CoV Urbani / Binding of serum 6 to linear peptides of protein N of SARS-CoV Urbani / Binding of serum 37 to linear peptides of protein N of SARS-CoV Urbani / Binding of serum 6 to linear peptide (PEPSCAN-ELISA) / Binding of serum 1a to looped/cyclic peptides of protein N of SARS-CoV Urbani / Binding of serum 1b to looped/cyclic peptides of protein N of SARS-CoV Urbani / Binding of serum 2 to looped/cyclic peptides of protein N of SARS-CoV Urbani / Binding of serum 6 to looped/cyclic peptides of protein N of SARS-CoV Urbani / Binding of serum 37 to looped/cyclic peptides of protein N of SARS-CoV Urbani / Binding of serum 62 to looped/cyclic peptides of protein N of SARS-CoV Urbani / Binding of serum London to looped/cyclic peptides of protein N of SARS-CoV Urbani / Binding of serum SARS-green to looped/cyclic peptides of protein N of SARS-CoV Urbani: unit not given here"}, "[3]": {"tested_on": "control sera (pooled serum of ten healthy LUMC hospital workers; commercial negative donor pooled serum from the Dutch bloodbank)", "format": "binding, human", "design": "Binding of Control serum LUMC to linear peptides / Binding of Control serum Blood-bank to linear peptides / Binding of Control serum LUMC to looped peptides / Binding of Control Serum Blood-Bank to Looped peptides / Binding of Control serum LUMC to linear peptides of the protein M of SARS-CoV Urbani / Binding of Control serum Blood-bank to linear peptides of the protein M of SARS-CoV Urbani / Binding of Control serum LUMC to looped peptides of the protein M of SARS-CoV Urbani / Binding of Control Serum Blood-Bank to Looped peptides of the protein M of SARS-CoV Urbani: unit not given here"}},
  "data": [
    {"sequence": "TIVTRPLMESELVIG", "values": [
      {"measurement": "Rabbit serum linear peptides", "setting": "[1]", "value": 0.3},
      {"measurement": "Rabbit serum looped peptides", "setting": "[1]", "value": 0.3},
      {"measurement": "Binding of serum 1a to linear peptides of protein M of SARS-CoV Urbani", "setting": "[2]", "value": 0.8},
      {"measurement": "Binding of serum 1b to linear peptides of protein M of SARS-CoV Urbani", "setting": "[2]", "value": 0.6},
      {"measurement": "Binding of serum 2 to linear peptides of protein M of SARS-CoV Urbani", "setting": "[2]", "value": 0.6},
      {"measurement": "Binding of serum 6 to linear peptides of protein M of SARS-CoV Urbani", "setting": "[2]", "value": 0.4},
      {"measurement": "Binding of serum 37 to linear peptides of protein M of SARS-CoV Urbani", "setting": "[2]", "value": 0.7},
      {"measurement": "Binding of serum 62 to linear peptides of protein M of SARS-CoV Urbani", "setting": "[2]", "value": 0.9},
      {"measurement": "Binding of serum London to linear peptides of protein M of SARS-CoV Urbani", "setting": "[2]", "value": 0.3},
      {"measurement": "Binding of serum SARS-green to linear peptides of protein M of SARS-CoV Urbani", "setting": "[2]", "value": 0.3},
      {"measurement": "Binding of serum SARS-yellow to linear peptides of protein M of SARS-CoV Urbani", "setting": "[2]", "value": 0.1},
      {"measurement": "Recognition of the peptide by sera of SARS-CoV infected individuals, and form (linear, looped/cyclic) in which it is recognized", "setting": "[2]", "value": "recognized in looped/cyclic form"},
      {"measurement": "Binding of Control Serum Blood-Bank to Looped peptides of the protein M of SARS-CoV Urbani", "setting": "[3]", "value": 0.9},
      {"measurement": "Binding of Control serum Blood-bank to linear peptides of the protein M of SARS-CoV Urbani", "setting": "[3]", "value": 0.8},
      {"measurement": "Binding of Control serum LUMC to linear peptides of the protein M of SARS-CoV Urbani", "setting": "[3]", "value": 0.5},
      {"measurement": "Binding of Control serum LUMC to looped peptides of the protein M of SARS-CoV Urbani", "setting": "[3]", "value": 1.0}
    ]},
    {"sequence": "TIYSHLLLVAAGMEA", "values": [
      {"measurement": "Binding of a rabbit serum to linear peptides", "setting": "[1]", "value": 0.1},
      {"measurement": "Binding of a rabbit serum to looped peptides", "setting": "[1]", "value": 0.4},
      {"measurement": "Binding of serum 1a to linear peptides of protein X1 of SARS-CoV Urbani", "setting": "[2]", "value": 0.6},
      {"measurement": "Binding of serum 1a to looped/cyclic peptide (PEPSCAN-ELISA)", "setting": "[2]", "value": 0.5},
      {"measurement": "Binding of serum 1b to linear peptides of protein X1 of SARS-CoV Urbani", "setting": "[2]", "value": 0.5},
      {"measurement": "Binding of serum 1b to looped/cyclic peptide (PEPSCAN-ELISA)", "setting": "[2]", "value": 0.4},
      {"measurement": "Binding of serum 2 to linear peptides of protein X1 of SARS-CoV Urbani", "setting": "[2]", "value": 0.4},
      {"measurement": "Binding of serum 2 to looped/cyclic peptide (PEPSCAN-ELISA)", "setting": "[2]", "value": 0.3},
      {"measurement": "Binding of serum 6 to linear peptides of protein X1 of SARS-CoV Urbani", "setting": "[2]", "value": 0.3},
      {"measurement": "Binding of serum 6 to looped/cyclic peptide (PEPSCAN-ELISA)", "setting": "[2]", "value": 0.3},
      {"measurement": "Binding of serum 37 to linear peptides of protein X1 of SARS-CoV Urbani", "setting": "[2]", "value": 0.5},
      {"measurement": "Binding of serum 37 to looped/cyclic peptide (PEPSCAN-ELISA)", "setting": "[2]", "value": 0.5},
      {"measurement": "Binding of serum 62 to linear peptides of protein X1 of SARS-CoV Urbani", "setting": "[2]", "value": 0.4},
      {"measurement": "Binding of serum 62 to looped/cyclic peptide (PEPSCAN-ELISA)", "setting": "[2]", "value": 0.5},
      {"measurement": "Binding of serum London to linear peptides of protein X1 of SARS-CoV Urbani", "setting": "[2]", "value": 0.2},
      {"measurement": "Binding of serum London to looped/cyclic peptide (PEPSCAN-ELISA)", "setting": "[2]", "value": 0.2},
      {"measurement": "Binding of serum SARS-green to linear peptides of protein X1 of SARS-CoV Urbani", "setting": "[2]", "value": 0.3},
      {"measurement": "Binding of serum SARS-green to looped/cyclic peptide (PEPSCAN-ELISA)", "setting": "[2]", "value": 0.2},
      {"measurement": "Binding of serum SARS-yellow to linear peptides of protein X1 of SARS-CoV Urbani", "setting": "[2]", "value": 0.5},
      {"measurement": "Binding of serum SARS-yellow to looped/cyclic peptide (PEPSCAN-ELISA)", "setting": "[2]", "value": 0.3},
      {"measurement": "Binding of Control Serum Blood-Bank to Looped peptides", "setting": "[3]", "value": 0.5},
      {"measurement": "Binding of Control serum Blood-bank to linear peptides", "setting": "[3]", "value": 0.4},
      {"measurement": "Binding of Control serum LUMC to linear peptides", "setting": "[3]", "value": 0.4},
      {"measurement": "Binding of Control serum LUMC to looped peptides", "setting": "[3]", "value": 0.6}
    ]},
    {"sequence": "TLACFVLAAVYRINW", "values": [
      {"measurement": "Rabbit serum linear peptides", "setting": "[1]", "value": 0.5},
      {"measurement": "Rabbit serum looped peptides", "setting": "[1]", "value": 0.1},
      {"measurement": "Binding of serum 1a to linear peptides of protein M of SARS-CoV Urbani", "setting": "[2]", "value": 0.7},
      {"measurement": "Binding of serum 1a to looped/cyclic peptides of protein M of SARS-CoV Urbani", "setting": "[2]", "value": 0.7},
      {"measurement": "Binding of serum 1b to linear peptides of protein M of SARS-CoV Urbani", "setting": "[2]", "value": 0.5},
      {"measurement": "Binding of serum 1b to looped/cyclic peptides of protein M of SARS-CoV Urbani", "setting": "[2]", "value": 0.5},
      {"measurement": "Binding of serum 2 to linear peptides of protein M of SARS-CoV Urbani", "setting": "[2]", "value": 0.5},
      {"measurement": "Binding of serum 2 to looped/cyclic peptides of protein M of SARS-CoV Urbani", "setting": "[2]", "value": 0.6},
      {"measurement": "Binding of serum 6 to linear peptides of protein M of SARS-CoV Urbani", "setting": "[2]", "value": 0.3},
      {"measurement": "Binding of serum 6 to looped/cyclic peptides of protein M of SARS-CoV Urbani", "setting": "[2]", "value": 0.7},
      {"measurement": "Binding of serum 37 to linear peptides of protein M of SARS-CoV Urbani", "setting": "[2]", "value": 0.8},
      {"measurement": "Binding of serum 37 to looped/cyclic peptides of protein M of SARS-CoV Urbani", "setting": "[2]", "value": 0.6},
      {"measurement": "Binding of serum 62 to linear peptides of protein M of SARS-CoV Urbani", "setting": "[2]", "value": 0.8},
      {"measurement": "Binding of serum 62 to looped/cyclic peptides of protein M of SARS-CoV Urbani", "setting": "[2]", "value": 0.6},
      {"measurement": "Binding of serum London to linear peptides of protein M of SARS-CoV Urbani", "setting": "[2]", "value": 0.3},
      {"measurement": "Binding of serum London to looped/cyclic peptides of protein M of SARS-CoV Urbani", "setting": "[2]", "value": 0.3},
      {"measurement": "Binding of serum SARS-green to linear peptides of protein M of SARS-CoV Urbani", "setting": "[2]", "value": 0.3},
      {"measurement": "Binding of serum SARS-green to looped/cyclic peptides of protein M of SARS-CoV Urbani", "setting": "[2]", "value": 0.2},
      {"measurement": "Binding of serum SARS-yellow to linear peptides of protein M of SARS-CoV Urbani", "setting": "[2]", "value": 0.0},
      {"measurement": "Binding of serum SARS-yellow to looped/cyclic peptides of protein M of SARS-CoV Urbani", "setting": "[2]", "value": 0.5},
      {"measurement": "Binding of Control Serum Blood-Bank to Looped peptides of the protein M of SARS-CoV Urbani", "setting": "[3]", "value": 0.8},
      {"measurement": "Binding of Control serum Blood-bank to linear peptides of the protein M of SARS-CoV Urbani", "setting": "[3]", "value": 0.5},
      {"measurement": "Binding of Control serum LUMC to linear peptides of the protein M of SARS-CoV Urbani", "setting": "[3]", "value": 0.2},
      {"measurement": "Binding of Control serum LUMC to looped peptides of the protein M of SARS-CoV Urbani", "setting": "[3]", "value": 0.7}
    ]}
  ]
}
